# ChEMBL document CHEMBL4145482, “Discovery of novel HSP90 inhibitors that induced apoptosis and impaired autophagic flux in A549 lung cancer cells” (Eur J Med Chem, 2018)
# Active and inactive are the calls of the source. No cut-off for these calls is given here.
# Experiments:
# [1] = molecular target: T1, Heat shock protein HSP90 (Homo sapiens) (UniProt P07900+P08238); assay: Inhibition of anti-HSP90 antibody binding to HSP90 in human A549 cells preincubated for 1 hr followed by antibody addition by Western blot analysis; assay type: cell-based
# A549 [2] = assay: Growth inhibition of human A549 cells after 48 hrs by SRB assay; assay type: functional, cell-based; conditions: for IC50: A549, 48 h
# A549 [3] = assay: Induction of necrosis in human A549 cells at 10 to 20 uM after 48 hrs by LDH release assay; assay type: functional, cell-based
# A549 [4] = assay: Induction of apoptosis in human A549 cells assessed as DNA fragmentation at 10 uM after 6 to 24 hrs by Hoechst 33258 staining based fluorescence microscopic method; assay type: functional, cell-based
# A549 [5] = assay: Induction of apoptosis in human A549 cells assessed as chromatin condensation at 10 uM after 6 to 24 hrs by Hoechst 33258 staining based fluorescence microscopic method; assay type: functional, cell-based
# A549 [6] = assay: Inhibition of autophagic flux in human A549 cells assessed as increase in LC3-2 protein level at 10 uM after 24 hrs by Western blot analysis; assay type: functional, cell-based
# A549 [7] = assay: Inhibition of autophagic flux in human A549 cells assessed as increase in p62 protein level at 10 uM after 24 hrs by Western blot analysis; assay type: functional, cell-based
# A549 [8] = assay: Inhibition of autophagic flux in human A549 cells assessed as increase in LC3-2 protein level at 10 uM after 24 hrs in presence of V-ATPase inhibitor bafilomycin-A1 by Western blot analysis; assay type: functional, cell-based
# A549 [9] = assay: Inhibition of autophagic flux in human A549 cells assessed as increase in p62 protein level at 10 uM after 24 hrs in presence of V-ATPase inhibitor bafilomycin-A1 by Western blot analysis; assay type: functional, cell-based
# A549 [10] = assay: Growth inhibition of human A549 cells up to 20 uM up to 48 hrs by SRB assay; assay type: functional, cell-based
# [11] = molecular target: T1, Heat shock protein HSP90 (Homo sapiens); assay: Inhibition of HSP90 in human A549 cells assessed as reduction in AKT protein expression at 10 uM up to 48 hrs by Western blot analysis; assay type: cell-based
# [12] = molecular target: T1, Heat shock protein HSP90 (Homo sapiens); assay: Inhibition of HSP90 in human A549 cells assessed as reduction in NFkB p65 protein expression at 10 uM up to 48 hrs by Western blot analysis; assay type: cell-based
# A549 [13] = assay: Effect on HSP90 protein expression in human A549 cells at 10 uM up to 48 hrs by Western blot analysis; assay type: cell-based; conditions: a549, 48 h
# A549 [14] = assay: Upregulation of HSP70 protein expression in human A549 cells at 10 uM up to 48 hrs by Western blot analysis; assay type: cell-based; conditions: a549, 48 h
# HUVEC = assay: Cytotoxicity against HUVEC assessed as reduction in cell viability after 48 hrs by SRB assay; assay type: cell-based; conditions: human
Compound,inhibition [1],growth inhibition (GI) (A549 [2]),IC50 (A549 [2]),Activity (A549 [3]),Activity (A549 [4]),Activity (A549 [5]),Activity (A549 [6]),Activity (A549 [7]),Activity (A549 [8]),Activity (A549 [9]),growth inhibition (GI) (A549 [10]),inhibition [11],inhibition [12],Activity (A549 [13]),Activity (A549 [14]),Activity (HUVEC)
COc1ccc(C2CC(c3cc4ccc(O)cc4oc3=O)=NN2c2ccc(F)cc2)cc1 (stereo unspecified),Dose-dependent effect,Dose-dependent effect,7.1 µM,inactive,Active,Active,Active,Active,inactive,inactive,–,–,–,–,–,–
O=c1oc2cc(O)ccc2cc1C1=NN(c2ccc(F)cc2)C(c2ccccc2)C1 (stereo unspecified),Dose-dependent effect,Dose-dependent effect,7.2 µM,inactive,Active,Active,Active,Active,inactive,inactive,–,–,–,–,–,–
COc1ccc(C2CC(c3cc4ccc(O)cc4oc3=O)=NN2c2ccc(Cl)cc2)cc1 (stereo unspecified),Dose-dependent effect,Dose-dependent effect,9.6 µM,inactive,Active,Active,Active,Active,inactive,inactive,–,–,–,–,–,–
COc1ccc(C2CC(c3cc4ccc(O)cc4oc3=O)=NN2c2ccccc2)cc1 (stereo unspecified),Dose-dependent effect,Dose-dependent effect,6.3 µM,inactive,Active,Active,Active,Active,inactive,inactive,–,–,–,–,–,–
O=c1[nH]cc(F)c(=O)[nH]1,–,–,–,–,–,–,–,–,–,–,inactive,–,–,–,–,–
O=c1oc2cc(O)ccc2cc1C1=NN(c2ccccc2)C(c2ccccc2)C1 (stereo unspecified),Dose-dependent effect,Dose-dependent effect,4.7 µM,inactive,Active,Active,Active,Active,inactive,inactive,–,Active,Active,Non-Toxic,Non-Toxic,Non-Toxic
COc1ccc(C2CC(c3cc4ccc(O)cc4oc3=O)=NN2c2ccc(Br)cc2)cc1 (stereo unspecified),Dose-dependent effect,Dose-dependent effect,6.5 µM,inactive,Active,Active,Active,Active,inactive,inactive,–,–,–,–,–,–
